From ChEMBL document CHEMBL5727982, “Inhibitors of cyclin-dependent kinase 7 (CDK7)” (2020)

Target: Cyclin-dependent kinase 7/ cyclin H (Homo sapiens, UniProt P50613)
Test: In Vitro Kinase Assay: In vitro kinase assays with immunoprecipitated proteins (or recombinant CAK complexes) were performed as follows. Kinase reactions were performed in 25 μL of final volume of reaction buffer (50 mM Hepes, pH 7.5, 150 mM NaCl, 10 mM MgCl2, 5% glycerol, 25 μM ATP, and 10 μCi of [γ-32P]ATP). Each reaction contained 1 μg of RNAP II. Incubation was at 30° C. for 30-45 min. Reactions were terminated by addition of 5 μL of 5×SDS-PAGE sample buffer and incubated at 95° C. for 5 min. Reactions were analyzed by SDS-PAGE, and the dried gel was exposed to film or PhosphorImager plate.
Assay type: protein-complex assay

Chain of Cyclin-dependent kinase 7/ cyclin H (P51946 whole entry): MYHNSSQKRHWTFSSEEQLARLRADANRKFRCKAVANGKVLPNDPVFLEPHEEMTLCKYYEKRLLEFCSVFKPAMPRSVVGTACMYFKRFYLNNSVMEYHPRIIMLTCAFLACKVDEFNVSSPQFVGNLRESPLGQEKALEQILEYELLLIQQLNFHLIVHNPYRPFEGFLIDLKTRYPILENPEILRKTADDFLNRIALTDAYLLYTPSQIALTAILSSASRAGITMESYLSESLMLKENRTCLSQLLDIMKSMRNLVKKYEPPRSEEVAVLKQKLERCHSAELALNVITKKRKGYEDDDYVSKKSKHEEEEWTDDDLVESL
Chain of Cyclin-dependent kinase 7/ cyclin H (P50613 whole entry): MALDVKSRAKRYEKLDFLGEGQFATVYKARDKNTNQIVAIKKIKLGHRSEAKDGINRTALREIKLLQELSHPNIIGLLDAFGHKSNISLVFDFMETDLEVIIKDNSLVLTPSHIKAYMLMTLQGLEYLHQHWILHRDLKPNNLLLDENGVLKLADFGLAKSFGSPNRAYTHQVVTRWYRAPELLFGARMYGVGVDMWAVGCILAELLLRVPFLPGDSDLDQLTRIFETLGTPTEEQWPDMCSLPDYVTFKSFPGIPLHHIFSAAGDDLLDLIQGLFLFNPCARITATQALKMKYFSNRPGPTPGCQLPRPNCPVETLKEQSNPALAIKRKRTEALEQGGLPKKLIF

CN(C)C/C=C/C(=O)Nc1ccc(S(=O)(=O)Nc2cccc(Nc3ncc(Cl)c(-c4c[nH]c5ccccc45)n3)c2)cc1
IC50: < 0.1 µM
